Experiments:
Type in all cases: physicochemical
[1] = Solid-state chemical stability (long term and accelerated storage), total impurities by HPLC
Procedure: The chemical stability of PF-06873600 anhydrous free base (Form 1) was investigated at long term storage conditions (25° C./60% RH) for an extended time period and under accelerated stability conditions (40° C./75% RH) for a shorter period. Stability testing was conducted at 25° C./60% RH for 24 months (long term conditions) and at 40° C./75% RH for 6 months (accelerated conditions) and evaluated for appearance and purity by HPLC.
(§1) Stability samples of drug substance were packaged in double low-density polyethylene (LDPE) bags and desiccant within high-density polyethylene (HDPE) drum. Photostability samples were stored in a quartz Petri dish with a quartz lid.

[2] = Water sorption and desorption, automated vapor sorption analyzer
Procedure: Water sorption and desorption studies were conducted on automated vapor sorption analyzer (TA instruments Q5000 SA). The microbalance was calibrated using a 100 mg standard weight. The relative humidity sensor was calibrated at 5.0, 11.3, 32.8, 52.8, 75.3, and 84.3% RH (25° C.) using saturated salt solutions. Approximately 30 mg of the powder sample was placed in the quartz sample holder and dried at ≤3% relative humidity (RH) at 25° C. The attainment of equilibrium was assumed when the weight change of the sample was <0.001 wt % in 5 min or by a maximum equilibration time of 120 minutes. […] The attainment of equilibrium was again assumed when the weight change of the sample was <0.001 wt % in 5 min or by a maximum equilibration time of 120 minutes. The weight gain at each of the % RH steps is based on the weight after the initial drying step. The data were analyzed using Universal Analysis software V4.5A.

[3] = Photostability study under ICH conditions, light source option 2; details: for Total impurities: ICH photostability
Excerpt: A photostability study was run under ICH conditions using light source option 2 ICH conditions.
as §1

Total impurities ([1]; 25° C./60% RH, 3 mos.): 0.49%
Total impurities ([1]; 25° C./60% RH, 6 mos.): 0.48%
Total impurities ([1]; 25° C./60% RH, 12 mos.): 0.51%
Total impurities ([1]; 25° C./60% RH, 24 mos.): 0.59%
Total impurities ([1]; 25° C./60% RH, Initial): 0.5%
Total impurities ([1]; 40° C./75% RH, 3 mos.): 0.47%
Total impurities ([1]; 40° C./75% RH, 6 mos.): 0.47%
Total impurities ([1]; 40° C./75% RH, Initial): 0.5%
Water Content, Desorption ([2]; 25° C., 10% RH): −0.12 % w/w
Water Content, Sorption ([2]; 25° C., 10% RH): 0.00 % w/w
Water Content, Desorption ([2]; 25° C., 20% RH): −0.1 % w/w
Water Content, Sorption ([2]; 25° C., 20% RH): 0.02 % w/w
Water Content, Desorption ([2]; 25° C., 30% RH): −0.07 % w/w
Water Content, Sorption ([2]; 25° C., 30% RH): 0.04 % w/w
Water Content, Desorption ([2]; 25° C., 40% RH): −0.06 % w/w
Water Content, Sorption ([2]; 25° C., 40% RH): 0.06 % w/w
Water Content, Desorption ([2]; 25° C., 50% RH): −0.04 % w/w
Water Content, Sorption ([2]; 25° C., 50% RH): 0.07 % w/w
Water Content, Desorption ([2]; 25° C., 60% RH): −0.03 % w/w
Water Content, Sorption ([2]; 25° C., 60% RH): 0.07 % w/w
Water Content, Desorption ([2]; 25° C., 70% RH): −0.01 % w/w
Water Content, Sorption ([2]; 25° C., 70% RH): 0.08 % w/w
Water Content, Desorption ([2]; 25° C., 80% RH): 0.02 % w/w
Water Content, Sorption ([2]; 25° C., 80% RH): 0.08 % w/w
Water Content, Desorption ([2]; 25° C., 90% RH): 0.04 % w/w
Water Content, Sorption ([2]; 25° C., 90% RH): 0.04 % w/w
Change in solid form ([2]; after the water sorption study): no change in solid form
Weight gain ([2]; up to 90% RH): no significant weight gain
Hygroscopicity ([2]; water sorption study, 25° C.): not hygroscopic
Total impurities ([3]; light source option 2, 8 days): 0.64%
Total impurities ([3]; light source option 2, Initial): 0.58%
SMILES: C[C@@]1(O)CCC[C@H]1n1c(=O)c(C(F)F)cc2cnc(NC3CCN(S(C)(=O)=O)CC3)nc21 [PF-06873600 free base (Form 1), 6-(difluoromethyl)-8-[(1R,2R)-2-hydroxy-2-methylcyclopentyl]-2-{[1-(methylsulfonyl)piperidin-4-yl]amino}-pyrido[2,3-d]pyrimidin-7(8H)-one]
Appearance after photostability exposure ([3]; samples directly exposed to UV/Fluorescent conditions): change in appearance from an off-white powder to a pale-colored powder
